Assays:
[1] = molecular target: T1, CD73 (Homo sapiens (Human), UniProt P21589); format: biochemical; conditions: 1 mM NaH2PO4 in enzyme buffer, CD73 0.3 nM, AMP 15 uM
[2] = molecular target: T1, CD73; assay: MDA-MB-231 Cell Based CD73 Activity Assay (DMEM); conditions: MDA-MB-231-GFP cells, DMEM medium with 10% human plasma, 200 uM AMP

T1 sequence (P21589 27-574): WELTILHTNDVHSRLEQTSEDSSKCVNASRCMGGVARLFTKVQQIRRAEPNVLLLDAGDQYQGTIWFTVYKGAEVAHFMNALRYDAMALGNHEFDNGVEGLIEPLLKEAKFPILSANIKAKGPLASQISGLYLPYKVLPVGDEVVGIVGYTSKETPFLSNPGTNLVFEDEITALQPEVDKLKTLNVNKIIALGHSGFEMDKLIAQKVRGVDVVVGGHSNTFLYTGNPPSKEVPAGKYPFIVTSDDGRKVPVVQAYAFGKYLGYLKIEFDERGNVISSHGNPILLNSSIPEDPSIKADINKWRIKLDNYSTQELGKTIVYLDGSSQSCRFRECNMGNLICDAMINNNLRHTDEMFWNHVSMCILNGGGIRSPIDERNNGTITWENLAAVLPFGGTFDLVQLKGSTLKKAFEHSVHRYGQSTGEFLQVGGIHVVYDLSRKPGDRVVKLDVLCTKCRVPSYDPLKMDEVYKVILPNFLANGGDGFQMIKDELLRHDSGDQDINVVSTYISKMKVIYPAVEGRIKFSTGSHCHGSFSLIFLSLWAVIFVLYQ

SMILES	IC50 [1] [nM]	EC50 [2] [nM]
O=c1[nH]cc(-c2cc([C@H]3C[C@@H]3c3ncc4cnn(CC(F)(F)F)c4c3F)c3nccn3n2)c(=O)[nH]1 (racemic) [Example 615, 5-(8-((1S,2S)-2-(7-fluoro-1-(2,2,2-trifluoroethyl)-1H-pyrazolo[4,3-c]pyridin-6-yl)cyclopropyl)imidazo[1,2-b]pyridazin-6-yl)pyrimidine-2,4(1H,3H)-dione]	1.54	0.28
O=c1[nH]cc(-c2cc([C@H]3C[C@@H]3c3cnc4cnn(CC(F)(F)F)c4c3)c3ncc(F)n3n2)c(=O)[nH]1 (racemic) [Example 619, 5-(3-fluoro-8-((1S,2S)-2-(1-(2,2,2-trifluoroethyl)-1H-pyrazolo[4,3-b]pyridin-6-yl)cyclopropyl)imidazo[1,2-b]pyridazin-6-yl)pyrimidine-2,4(1H,3H)-dione]	0.95	0.14
O=c1[nH]cc(-c2cc([C@H]3C[C@@H]3c3ncc4cnn(CC(F)(F)F)c4c3F)c3ncc(F)n3n2)c(=O)[nH]1 (racemic) [Example 621, 5-(3-fluoro-8-((1S,2S)-2-(7-fluoro-1-(2,2,2-trifluoroethyl)-1H-pyrazolo[4,3-c]pyridin-6-yl)cyclopropyl)imidazo[1,2-b]pyridazin-6-yl)pyrimidine-2,4(1H,3H)-dione]	1.32	0.32
O=c1[nH]cc(-c2cc([C@H]3C[C@@H]3c3cc4c(cn3)nc(C(F)(F)F)n4CC(F)(F)F)c3nccn3n2)c(=O)[nH]1 (racemic) [Example 624, 5-(8-((1S,2S)-2-(1-(2,2,2-trifluoroethyl)-2-(trifluoromethyl)-1H-imidazo[4,5-c]pyridin-6-yl)cyclopropyl)imidazo[1,2-b]pyridazin-6-yl)pyrimidine-2,4(1H,3H)-dione]	5.81	0.32
O=c1[nH]cc(-c2cc([C@H]3C[C@@H]3c3ccc4nc(C(F)F)n(CC(F)(F)F)c4c3)c3nccn3n2)c(=O)[nH]1 (racemic) [Example 626, 5-(8-((1S,2S)-2-(2-(difluoromethyl)-1-(2,2,2-trifluoroethyl)-1H-benzo[d]imidazol-6-yl)cyclopropyl)imidazo[1,2-b]pyridazin-6-yl)pyrimidine-2,4(1H,3H)-dione]	5.16	0.26
O=C1N(CC(F)(F)C(F)(F)F)c2cc([C@H]3C[C@@H]3c3cc(-c4c[nH]c(=O)[nH]c4=O)nn4ccnc34)ccc2C12CC2 (racemic) [Example 737, 5-(8-((1S,2S)-2-(2′-oxo-1′-(2,2,3,3,3-pentafluoropropyl)spiro[cyclopropane-1,3′-indolin]-6′-yl)cyclopropyl)imidazo[1,2-b]pyridazin-6-yl)pyrimidine-2,4(1H,3H)-dione]	1.79	0.18
O=C1N(CC(F)(F)C2CC2)c2cc([C@H]3C[C@@H]3c3cc(-c4c[nH]c(=O)[nH]c4=O)nn4ccnc34)ccc2C12CC2 (racemic) [Example 738, 5-(8-((1S,2S)-2-(1′-(2-cyclopropyl-2,2-difluoroethyl)-2′-oxospiro[cyclopropane-1,3′-indolin]-6′-yl)cyclopropyl)imidazo[1,2-b]pyridazin-6-yl)pyrimidine-2,4(1H,3H)-dione]	1.74	0.21
CC1(C)CN(c2cc(-c3c[nH]c(=O)[nH]c3=O)nn3c(F)cnc23)CC1(F)F [Example 81, 5-[8-(3,3-difluoro-4,4-dimethyl-pyrrolidin-1-yl)-3-fluoro-imidazo[1,2-b]pyridazin-6-yl]-1H-pyrimidine-2,4-dione]	1.93	8.22
O=c1[nH]cc(-c2cc(N3CC(F)(F)C4(CC4)C3)c3nccn3n2)c(=O)[nH]1 [Example 83, 5-(8-(7,7-difluoro-5-azaspiro[2.4]heptan-5-yl)imidazo[1,2-b]pyridazin-6-yl)pyrimidine-2,4(1H,3H)-dione]	1.47	6.65
O=c1[nH]cc(-c2cc([C@H]3C[C@@H]3c3ccc(OC(F)F)nc3)c3ncc(F)n3n2)c(=O)[nH]1 [Example 122, 5-(8-((1S,2S)-2-(6-(difluoromethoxy)pyridin-3-yl)cyclopropyl)-3-fluoroimidazo[1,2-b]pyridazin-6-yl)pyrimidine-2,4(1H,3H)-dione]	2.39	11.1

Continued by falling IC50 [1], values first:

IC50 [1] [nM]	EC50 [2] [nM]	SMILES
3.49	16.4	O=c1[nH]cc(-c2cc(N3CC(F)(F)C4(CC4)C3)c3ncc(F)n3n2)c(=O)[nH]1 [Example 82, 5-(8-(7,7-difluoro-5-azaspiro[2.4]heptan-5-yl)-3-fluoroimidazo[1,2-b]pyridazin-6-yl)pyrimidine-2,4(1H,3H)-dione]
2.87	27.3	O=c1[nH]cc(-c2cc([C@H]3C[C@@H]3c3cc(-c4ccccc4C(F)(F)F)ccn3)c3nccn3n2)c(=O)[nH]1 (racemic) [Example 622, 5-(8-((1S,2S)-2-(4-(2-(trifluoromethyl)phenyl)pyridin-2-yl)cyclopropyl)imidazo[1,2-b]pyridazin-6-yl)pyrimidine-2,4(1H,3H)-dione]
2.72	0.11	CC(F)(F)CN1C(=O)C2(CC2)c2ccc([C@H]3C[C@@H]3c3cc(-c4c[nH]c(=O)[nH]c4=O)nn4ccnc34)cc21 (racemic) [Example 733, 5-(8-((1S,2S)-2-(1′-(2,2-difluoropropyl)-2′-oxospiro[cyclopropane-1,3′-indolin]-6′-yl)cyclopropyl)imidazo[1,2-b]pyridazin-6-yl)pyrimidine-2,4(1H,3H)-dione]
2.57	> 50	O=c1[nH]cc(-c2cc([C@H]3C[C@@H]3c3cc(OCC(F)(F)F)c4cccnc4c3)c3nccn3n2)c(=O)[nH]1 (racemic) [Example 627, 5-(8-((1S,2S)-2-(5-(2,2,2-trifluoroethoxy)quinolin-7-yl)cyclopropyl)imidazo[1,2-b]pyridazin-6-yl)pyrimidine-2,4(1H,3H)-dione]
2.47	10.1	O=c1[nH]cc(-c2cc([C@H]3C[C@@H]3c3ccn4c(C(F)(F)F)ncc4c3)c3nccn3n2)c(=O)[nH]1 (racemic) [Example 625, 5-(8-((1S,2S)-2-(3-(trifluoromethyl)imidazo[1,5-a]pyridin-7-yl)cyclopropyl)imidazo[1,2-b]pyridazin-6-yl)pyrimidine-2,4(1H,3H)-dione]
2.37	0.84	O=C1N(CCC(F)(F)F)c2cc([C@H]3C[C@@H]3c3cc(-c4c[nH]c(=O)[nH]c4=O)nn4ccnc34)ccc2C12CC2 (racemic) [Example 746, 5-(8-((1S,2S)-2-(2′-oxo-1′-(3,3,3-trifluoropropyl)spiro[cyclopropane-1,3′-indolin]-6′-yl)cyclopropyl)imidazo[1,2-b]pyridazin-6-yl)pyrimidine-2,4(1H,3H)-dione]
2.36	0.39	O=c1[nH]cc(-c2cc([C@H]3C[C@@H]3c3ccc4c(C(F)(F)F)nc(CC(F)(F)F)n4c3)c3nccn3n2)c(=O)[nH]1 (racemic) [Example 609, 5-(8-((1S,2S)-2-(3-(2,2,2-trifluoroethyl)-1-(trifluoromethyl)imidazo[1,5-a]pyridin-6-yl)cyclopropyl)imidazo[1,2-b]pyridazin-6-yl)pyrimidine-2,4(1H,3H)-dione]
2.3	0.2	O=c1[nH]cc(-c2cc([C@H]3C[C@@H]3c3ccc4nc5n(c4c3)C(C(F)(F)F)CC5)c3nccn3n2)c(=O)[nH]1 (mixture of isomers) [Example 616, 5-(8-((1S,2S)-2-(1-(trifluoromethyl)-2,3-dihydro-1H-benzo[d]pyrrolo[1,2-a]imidazol-7-yl)cyclopropyl)imidazo[1,2-b]pyridazin-6-yl)pyrimidine-2,4(1H,3H)-dione]
2.27	22	O=c1[nH]cc(-c2cc([C@H]3C[C@@H]3c3cc(-c4ccc(F)cc4F)ccn3)c3nccn3n2)c(=O)[nH]1 (racemic) [Example 623, 5-(8-((1S,2S)-2-(4-(2,4-difluorophenyl)pyridin-2-yl)cyclopropyl)imidazo[1,2-b]pyridazin-6-yl)pyrimidine-2,4(1H,3H)-dione]
1.91	0.21	O=C1N(CC(F)(F)C(F)F)c2cc([C@H]3C[C@@H]3c3cc(-c4c[nH]c(=O)[nH]c4=O)nn4ccnc34)ccc2C12CC2 (racemic) [Example 736, 5-(8-((1S,2S)-2-(2′-oxo-1′-(2,2,3,3-tetrafluoropropyl)spiro[cyclopropane-1,3′-indolin]-6′-yl)cyclopropyl)imidazo[1,2-b]pyridazin-6-yl)pyrimidine-2,4(1H,3H)-dione]
1.81	6.79	CC1(C)CN(c2cc(-c3c[nH]c(=O)[nH]c3=O)nn3ccnc23)CC1(F)F [Example 80, 5-[8-(3,3-difluoro-4,4-dimethyl-pyrrolidin-1-yl)imidazo[1,2-b]pyridazin-6-yl]-1H-pyrimidine-2,4-dione]
1.69	0.19	O=C1N(CC2(F)CC2)c2cc([C@H]3C[C@@H]3c3cc(-c4c[nH]c(=O)[nH]c4=O)nn4ccnc34)ccc2C12CC2 (racemic) [Example 734, 5-(8-((1S,2S)-2-(1′-((1-fluorocyclopropyl)methyl)-2′-oxospiro[cyclopropane-1,3′-indolin]-6′-yl)cyclopropyl)imidazo[1,2-b]pyridazin-6-yl)pyrimidine-2,4(1H,3H)-dione]
1.1	6.56	O=c1[nH]cc(-c2cc(N3CC(F)(F)C4(CC4)C3)c3ncnn3n2)c(=O)[nH]1 [Example 84, 5-(8-(7,7-difluoro-5-azaspiro[2.4]heptan-5-yl)-[1,2,4]triazolo[1,5-b]pyridazin-6-yl)pyrimidine-2,4(1H,3H)-dione]
0.85	0.85	CC(C)n1ncc2ccc([C@H]3C[C@@H]3c3cc(-c4c[nH]c(=O)[nH]c4=O)nn4ccnc34)cc21 [Example 120, 5-(8-((1S,2S)-2-(1-isopropyl-1H-indazol-6-yl)cyclopropyl)imidazo[1,2-b]pyridazin-6-yl)pyrimidine-2,4(1H,3H)-dione]
